Laboratory results published in US20250188091A1, “PYRIDONE COMPOUND HAVING INTEGRASE INHIBITORY ACTIVITY AND PHARMACEUTICAL USE THEREOF” (priority 2021, published 2025).
Read-outs that look alike come from different tables or passages of the source.

Legend:
[1] = test system: WT (wild type) pseudovirus; experiment: Pseudovirus-based assay of anti-HIV-1 activity, WT strain; format: cell-based; conditions: HEK-293T, 72 h
Experimental: (§1) The inhibitory activity against pseudoviruses containing common clinical mutation sites of HIV-1 integrase (G140S/Q148R, Q148R/N155H, E138K, Q148H, R263K and Y143R/Q148H) was determined.
(§2) Preparation of pseudovirus: Using the lentiviral plasmid pNL4-3-Luc-RE (HedgehogBio) as the backbone, an integrase point mutation plasmid was constructed. HEK293T cells (ATCC) were seeded in a 6-well plate at 5×10^5 cells per well. After 24 hours, when the cell density reached 60% to 80%, transfection was performed. pNL4-3-Luc-R-E- or pNL4-3-Luc-R-E--IN-mutant plasmid and lentivirus packaging plasmid pMD2.G (Beijing Zoman Bio) were added to the transfection reagent in a certain proportion. Cell transfection was performed according to the instructions of transfection reagent PEI25K (Maokang Biotechnology). After 48 hours, the supernatant was collected, centrifuged at 3000 rpm for 5 minutes, filtered with a 0.45 μm microporous membrane, aliquoted, and stored at −80° C. for later use. In HEK293T cells, the pseudovirus titer was determined based on luciferase activity.
(§3) Determination of antiviral activity of compounds: In a 96-well V-bottom plate, the compound to be tested was diluted with DMSO semi-logarithmically, and a compound solution 4 times the final concentration was prepared for later use. According to the results of different virus titrations, the virus was diluted with complete culture medium for later use. HEK293T cells were digested with trypsin to obtain a cell suspension of 2×10^5/mL. 50 µl of compound diluent, 50 µl of virus diluent and 100 µl of cell suspension were added successively to a 96-well flat-bottomed plate. The final concentration of the compound was 1000 nM to 0.1 nM. The 96-well plate was incubated in a 37° C., 5% CO2 incubator. After 72 hours, 100 µL of culture supernatant was pipetted out carefully from each well of the 96-well plate, 25 µL of Steady-Glo detection reagent (Promega, Cat #E2550) was added to each well in the dark, and then assayed on a machine (Tecan, Type #Spark).

[2] = test system: HIV-1 integrase E138K pseudovirus; experiment: Pseudovirus-based assay of anti-HIV-1 activity, E138K strain; format: cell-based; conditions: HEK-293T, 72 h
Experimental: as §1, §2, §3

[3] = test system: HIV-1 integrase Q148H pseudovirus; experiment: Pseudovirus-based assay of anti-HIV-1 activity, Q148H strain; format: cell-based; conditions: HEK-293T, 72 h
Experimental: as §1, §2, §3

[4] = test system: HIV-1 integrase R263K pseudovirus; experiment: Pseudovirus-based assay of anti-HIV-1 activity, R263K strain; format: cell-based; conditions: HEK-293T, 72 h
Experimental: as §1, §2, §3

[5] = test system: HIV-1 integrase Y143R/Q148H pseudovirus; experiment: Pseudovirus-based assay of anti-HIV-1 activity, Y143R/Q148H strain; format: cell-based; conditions: HEK-293T, 72 h
Experimental: as §1, §2, §3

[6] = test system: HIV-1 integrase G140S/Q148R pseudovirus; experiment: Pseudovirus-based assay of anti-HIV-1 activity, G140S/Q148R strain; format: cell-based; conditions: HEK-293T, 72 h
Experimental: as §1, §2, §3

[7] = test system: HIV-1 integrase Q148R/N155H pseudovirus; experiment: Pseudovirus-based assay of anti-HIV-1 activity, Q148R/N155H strain; format: cell-based; conditions: HEK-293T, 72 h
Experimental: as §1, §2, §3

[8] = test system: human immunodeficiency virus type 1 IIIB strain (HIV-1IIIB); experiment: Cell protection assay against HIV infection (MT-4 cells, XTT); format: cell-based; conditions: for CC50/EC50: MT-4 cells, HIV-1IIIB
Experimental: The protective effect of the test compound on MT-4 cells infected by human immunodeficiency virus type 1 IIIB strain (HIV-1IIIB) at different concentrations was evaluated.
The test compound was dissolved in DMSO at a concentration of 10 mM and stored at −20° C.
2) Test of the anti-HIV-1 IIIB infection activity of the compound: A starting concentration of 10 nM was used, and five serial five-fold dilutions were carried out on the compound. Each compound was present in the test medium at a concentration 2 folds of the final desired test concentration. 100 microliters (100 μL) of the solution of each concentration was added to triplicate wells for efficacy evaluation, and each concentration was added one well for colorimetric evaluation. AZT was purchased from Sigma Aldrich (St. Louis, MO, USA), and evaluated as a control compound in the antiviral assay.
(§4) Cell culture: MT-4 cells were passaged in a T-75 flask before use in the antiviral assay. On the day before the assay, cells were passaged in aliquots at a 1:2 ratio to ensure that they were in the exponential growth phase at the time of infection. Total cells and viable cells were quantified using a hemocytometer and trypan blue dye. The proportion of viable cells used for the assay was greater than 95%. The cells were resuspended in tissue culture medium at 5×10^4 cells per milliliter, and the resulting suspension was added to a drug-containing microtiter plate in a volume of 50 μL.
Virus preparation: The virus used for this assay was lymphotropic virus strain HIV-1IIIB. The viruses were amplified in CEM-SS cells for the preparation of virus stock solution. The pre-titered virus aliquot tube was taken from the refrigerator (−80° C.), and slowly thawed to room temperature in a biosafety cabinet. The viruses were diluted in the tissue culture medium. 50 μl of the diluted virus would produce 85% to 95% cell killing 6 days after infection. 50 μL of the diluted virus was added immediately to the microtiter plate containing cells and drugs.
(§5) Evaluation of the efficacy and toxicity of the compound with XTT: After culturing for six days in a 37° C., 5% CO2 incubator, tetrazolium dye XTT (2,3-bis(2-methoxy-4-nitro-5-sulfophenyl)-5-[(phenylamino)carbonyl]-2H-tetrazolium hydroxide) was added to the cell culture plate to conduct the test. The XTT solution was a 1 mg/ml RPMI1640 stock solution prepared on the same day. Phenazine methyl sulfate (PMS) solution at a concentration of 0.15 mg/ml was prepared in PBS, and stored in the dark at −20° C. XTT/PMS stock solution was prepared before use by adding 40 μl of PMS per milliliter of XTT solution. […] of XTT/PMS was added to each well of the plate, and the plate was re-incubated for 4 hours at 37° C. The plate was sealed with adhesive plate sealant, and gently shaked or inverted several times to mix the soluble formazan product. The absorbance was read at 450/650 nm.

[9] = Test of cytotoxicity of the compound (MT-4 cells, XTT); format: cell-based; conditions: human
Experimental: 1) Test of cytotoxicity of the compound: The test compound was evaluated using a starting concentration of 100 nM and five serial half-log dilutions. Each compound was present in the test medium at a concentration 2 folds of the final desired test concentration. The compound was diluted to 1 mM in DMSO. The compound was then diluted to 200 nM in a drug dilution tube containing 998 μL of test medium (adding 2 μL of 1 mM stock). […] of the 200 nM solution was transferred into 680 μL of the test medium (half-log dilution), and a total of five serial dilutions were carried out. 100 microliters (100 μL) of the solution of each concentration was added to duplicate wells for cytotoxicity evaluation, and each concentration was added to one well for colorimetric evaluation.
as §4, §5

[10] = test system: HIV-1 subtype A RW/92/009; experiment: Inhibitory activity against clinical HIV-1 strain RW/92/009 in PBMC; format: cell-based; conditions: for EC50: read-out: hPBMC/HIV-1 EC50; for EC90: read-out: hPBMC/HIV-1 EC90
Experimental: (§6) Preparation of virus: Clinical HIV-1 virus strains (Table 3) were obtained from the US NIH AIDS Research and Reference Reagent Library. PBMC were extracted from three fresh blood samples that were HIV and HBV seronegative, mixed and cultured, and PHA-P (phytohemagglutinin) was added to stimulate activation. The cells and virus were incubated at 37° C./5% CO2, and the cell culture supernatant after infection was collected and stored frozen at −80° C. Each viral titer was titrated in pooled PBMCs from three donors.
(§7) Assay of antiviral activity of compounds: Frozen PBMCs were resuspended in fresh culture medium (1×10^6 cells/mL), and added to a round-bottom 96-well plate ([…]). 100 μl of culture medium containing 2 times the final concentration of the compound was added to each well, and then 50 μL of virus solution was added (the final infection dose was MOI=0.002). After 7 days of culture, the reverse transcriptase activity in the supernatant was determined to evaluate HIV-1 replication. At the same time, a 96-well culture plate with only compounds and cells was prepared for the assay of compound cytotoxicity.

[11] = test system: HIV-1 subtype C MW/93/959; experiment: Inhibitory activity against clinical HIV-1 strain MW/93/959 in PBMC; format: cell-based; conditions: for EC50: read-out: hPBMC/HIV-1 EC50; for EC90: read-out: hPBMC/HIV-1 EC90
Experimental: as §6, §7

[12] = test system: HIV-1 subtype D UG/92/001; experiment: Inhibitory activity against clinical HIV-1 strain UG/92/001 in PBMC; format: cell-based; conditions: for EC50: read-out: hPBMC/HIV-1 EC50; for EC90: read-out: hPBMC/HIV-1 EC90
Experimental: as §6, §7

[13] = test system: common clinical integrase mutant strains (G140S/Q148R, Q148R/N155H, E138K, Q148H, R263K and Y143R/Q148H); experiment: Pseudovirus assay, common clinical integrase mutant strains (overall comparison); format: cell-based, HIV-1; conditions: R263K and Y143R/Q148H pseudoviruses
Experimental: as §1, §2
Determination of antiviral activity of compounds: In a 96-well V-bottom plate, the compound to be tested was diluted with DMSO semi-logarithmically, and a compound solution 4 times the final concentration was prepared for later use. […]

[14] = test system: HIV-1 clinical isolates (RW/92/009, MW/93/959, UG/92/001); experiment: Clinical HIV-1 isolates in human PBMC (overall comparison); format: cell-based; conditions: RW/92/009, MW/93/959, UG/92/001 in human PBMC
Experimental: as §6, §7

[15] = Human immunodeficiency virus 1, 168 h, RW/92/009, human PBMC, 7 days, reverse transcriptase activity in supernatant
[16] = Human immunodeficiency virus 1, 168 h, MW/93/959, human PBMC, 7 days, reverse transcriptase activity in supernatant
[17] = Human immunodeficiency virus 1, 168 h, UG/92/001, human PBMC, 7 days, reverse transcriptase activity in supernatant
[18] = Human immunodeficiency virus 1, PBMC, 168 h

SMILES | EC50 [1] | EC90 [1] | EC50 [2] | EC90 [2] | EC50 [3] | EC90 [3] | EC50 [4] | EC90 [4] | EC50 [5] | EC90 [5] | EC50 [6] | EC90 [6] | EC50 [7] | EC90 [7] | CC50/EC50 [8] | CC50 at 6 days [9] | other results
Cc1nnc(C(=O)NC(C)(C)c2nc(C(=O)NCc3ccc(F)cc3)c(O)c(=O)n2C)o1 [Raltegravir, raltegravir] | 5.5 nM | 60.7 nM | 8.1 nM | 46.2 nM | 214 nM | > 1000 nM | 7.1 nM | 68 nM | > 1000 nM | > 1000 nM | > 1000 nM | > 1000 nM | > 1000 nM | > 1000 nM | – | – | –
C[C@H]1CO[C@@H]2Cn3cc(C(=O)NCc4ccc(F)cc4F)c(=O)c(O)c3C(=O)N12 [Cabotegravir, cabotegravir] | 3 nM | 21.8 nM | 3.7 nM | 24.4 nM | 3.6 nM | 15.4 nM | 4.9 nM | 58.8 nM | 4.2 nM | 24.8 nM | 63.5 nM | 301 nM | 98 nM | > 1000 nM | >41.7 | > 100 nM | EC50 ([8]; Human immunodeficiency virus 1, MT4, 144 h, MT-4 cells infected by HIV-1IIIB, 6 days, XTT, read-out: EC50): 2.4 nM; EC50 [10, 15]: 0.09 nM; EC90 [10, 15]: 0.59 nM; EC50 [11, 16]: 0.06 nM; EC90 [11, 16]: 0.67 nM; EC50 [12, 17]: 0.46 nM; EC90 [12, 17]: 2.94 nM
O=C(NCc1ccc(F)cc1F)c1cn2c(c(O)c1=O)C(=O)N1[C@@H](CF)CO[C@@H]1C2 [Compound 2] | 1.8 nM | 12.9 nM | 2.3 nM | 14.1 nM | 2.2 nM | 12.5 nM | 2.9 nM | 25.1 nM | 3.1 nM | 14.1 nM | 42.2 nM | 194 nM | 82.3 nM | > 1000 nM | >112 | > 100 nM | EC50 ([8]; Human immunodeficiency virus 1, IIIB, MT4, 144 h): 0.89 nM; EC50 [10, 18]: 0.02 nM; EC90 [10, 18]: 0.4 nM; EC50 [11, 18]: 0.007 nM; EC90 [11, 18]: 0.37 nM; EC50 [12, 18]: 0.28 nM; EC90 [12, 18]: 1.28 nM; activity compared with cabotegravir [13]: better than that of cabotegravir with significant differences; activity compared with cabotegravir [14]: more active than cabotegravir
